From ChEMBL document CHEMBL5576073, “Design and synthesis of novel fluorene derivatives as inhibitors of pyruvate dehydrogenase kinase” (Bioorg Med Chem Lett, 2024)
Values after ≈ are worked out from the molar mass of the structure shown. Active and inactive are the calls of the source. No cut-off for these calls is given here.

Legend:
[1] = Aqueous solubility of compound in PBS at pH 7.2; format: physicochemical
[2] = Metabolic stability in human liver s9 fraction measured at 60 mins; format: ADME, subcellular; settings: read-out: Stability
[3] = Apparent permeability of compound in human Caco-2 cells; format: ADME, cell-based
[4] = target: [Pyruvate dehydrogenase (acetyl-transferring)] kinase isozyme 2, mitochondrial (Homo sapiens, UniProt Q15119); experiment: Inhibition of human recombinant PDHK2 assessed as residual PDH activity in presence of ATP using sodium pyruvate/Coenzyme A/thiamine pyrophosphate as substrates incubated for 90 mins by UV-transparent microplate analysis
[5] = target: [Pyruvate dehydrogenase (acetyl-transferring)] kinase isozyme 4, mitochondrial (Homo sapiens, UniProt Q16654); experiment: Inhibition of PDHK4 (unknown origin)
Chain of [Pyruvate dehydrogenase (acetyl-transferring)] kinase isozyme 4, mitochondrial (Q16654 whole entry): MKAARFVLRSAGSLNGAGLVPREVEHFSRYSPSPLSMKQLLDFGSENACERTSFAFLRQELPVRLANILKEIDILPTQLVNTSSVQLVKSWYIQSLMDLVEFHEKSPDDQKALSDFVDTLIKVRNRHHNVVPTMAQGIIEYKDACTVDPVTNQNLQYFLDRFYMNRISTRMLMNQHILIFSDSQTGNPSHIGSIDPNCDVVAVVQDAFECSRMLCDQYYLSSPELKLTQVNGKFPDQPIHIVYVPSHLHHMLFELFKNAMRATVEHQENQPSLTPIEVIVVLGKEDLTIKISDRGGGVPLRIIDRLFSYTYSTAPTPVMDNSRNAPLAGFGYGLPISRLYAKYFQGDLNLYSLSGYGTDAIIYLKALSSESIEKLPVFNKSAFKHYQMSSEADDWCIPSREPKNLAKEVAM

[6] = Total body clearance in Sprague-Dawley rat at 1 mg/kg, iv measured for 25 hrs by LC-MS/MS analysis; format: ADME, organism-based; settings: in vivo
[7] = Volume of distribution at steady state in Sprague-Dawley rat at 1 mg/kg, iv measured for 25 hrs by LC-MS/MS analysis; format: ADME, organism-based; settings: in vivo, read-out: Vdss
[8] = MRT in Sprague-Dawley rat at 1 mg/kg, iv measured for 25 hrs by LC-MS/MS analysis; format: ADME, organism-based; settings: in vivo
[9] = AUC in Sprague-Dawley rat at 1 mg/kg, iv measured for 25 hrs by LC-MS/MS analysis; format: ADME, organism-based; settings: in vivo
[10] = Cmax in Sprague-Dawley rat at 10 mg/kg, po measured for 25 hrs by LC-MS/MS analysis; format: ADME, organism-based; settings: in vivo
[11] = AUC in Sprague-Dawley rat at 10 mg/kg, po measured for 25 hrs by LC-MS/MS analysis; format: ADME, organism-based; settings: in vivo
[12] = Oral bioavailability in Sprague-Dawley rat at 10 mg/kg measured for 25 hrs by LC-MS/MS analysis; format: ADME, organism-based; settings: in vivo
[13] = species on record: Rattus norvegicus; experiment: Antidiabetic activity against Sprague-Dawley rat assessed as PDH activity in liver measured at 6 hrs; format: functional, organism-based; settings: dose 0.1-10 mg/kg, route po
[14] = tested on: Rattus norvegicus; experiment: Antidiabetic activity against Zucker fatty rats assessed as decrease in glucose level in plasma at 10 mg/kg administered for 28 days; format: functional, organism-based; settings: time 28.0 day
[15] = Drug concentration in Sprague-Dawley rat at 10 mg/kg, po measured at 8 hrs by LC-MS/MS analysis; format: ADME, organism-based; settings: in vivo, read-out: Drug uptake
[16] = Drug concentration in Sprague-Dawley rat at 10 mg/kg, po measured at 25 hrs by LC-MS/MS analysis; format: ADME, organism-based; settings: in vivo, read-out: Drug uptake

| solubility [1] [µM] | remaining at 1 h [2] [%] | Papp [3] [×10⁻⁶ cm/s] | IC50 [4] [nM] | SMILES | further results |
| --- | --- | --- | --- | --- | --- |
| 45 (≈ 13.9 µg/mL) |  | 34.5 | 600 | COC(=O)c1ccc2c(c1)C(O)(C(F)(F)F)c1ccccc1-2 (racemic) |  |
| 85 (≈ 28.8 µg/mL) |  | 48.3 |  | OCCCCOc1ccc2c(c1)C(O)(C(F)(F)F)c1ccccc1-2 (racemic) |  |
| 87 (≈ 21.8 µg/mL) |  | 56.8 | 5900 | OC1(C(F)(F)F)c2ccccc2-c2ccccc21 |  |
| ≤ 0.4 |  | 9.8 |  | OC1(C(F)(F)F)c2ccccc2-c2ccc(-c3ccccc3)cc21 (racemic) |  |
| 83 (≈ 27.7 µg/mL) | 29 | 39.5 |  | O=C1CCCN1c1ccc2c(c1)C(O)(C(F)(F)F)c1ccccc1-2 (racemic) |  |
| 17 (≈ 5.39 µg/mL) | 61 | 51.1 |  | OC1(C(F)(F)F)c2ccccc2-c2c(-c3cnco3)cccc21 (racemic) |  |
| 4.6 (≈ 1.51 µg/mL) | 96 | 56.2 |  | OC1(C(F)(F)F)c2ccccc2-c2c(-c3cncnc3)cccc21 (racemic) |  |
| ≥ 95 | 92 | 61.5 |  | O=C(O)CCCOc1ccc2c(c1)C(O)(C(F)(F)F)c1ccccc1-2 (racemic) |  |
| 93 (≈ 31 µg/mL) | 49 | 47.5 | 170 | O=C(c1ccc2c(c1)C(O)(C(F)(F)F)c1ccccc1-2)N1CCC1 (racemic) |  |
| 6.9 (≈ 2.28 µg/mL) | 62 | 63.1 |  | Cn1cc(-c2cccc3c2-c2ccccc2C3(O)C(F)(F)F)cn1 (racemic) |  |
| 0.38 (≈ 0.124 µg/mL) | 80 | 18 |  | OC1(C(F)(F)F)c2ccccc2-c2c(-c3cccnc3)cccc21 (racemic) |  |

The next lines start with the molecule.

| SMILES | solubility [1] [µM] | remaining at 1 h [2] [%] | Papp [3] [×10⁻⁶ cm/s] | IC50 [4] [nM] | further results |
| --- | --- | --- | --- | --- | --- |
| CNC(=O)Cn1cc(-c2cccc3c2-c2ccccc2C3(O)C(F)(F)F)cn1 (racemic) | 94 (≈ 36.4 µg/mL) | 93 | 51.2 |  |  |
| O=C(c1cc(-c2cnn(CCO)c2)c2c(c1)C(O)(C(F)(F)F)c1ccccc1-2)N1CCC1 (racemic) |  | 94 | 6.5 |  |  |
| CC(C)C1(O)c2ccccc2-c2ncccc21 (racemic) | 94 (≈ 21.2 µg/mL) | 97 |  | 12000 |  |
| Nc1nc(SCC(=O)c2ccccc2)nc2sc3c(c12)CCN(Cc1ccccc1)C3 | ≤ 0.3 | 6 |  | 1900 |  |
| Cc1cc(-c2cnn(CCO)c2)c2c(c1)C(O)(C(F)(F)F)c1ccccc1-2 (stereo not drawn) |  | 83 | 54.3 | 17 | IC50 [5]: > 1000 nM; clearance [6]: 11.7 mL/min/kg; Vd [7]: 2.6 L/kg; MRT [8]: 3.9 h; AUC at 25 h [9]: 4.1 µM·h; Cmax [10]: 4.4 µM; AUC at 25 h [11]: 57 µM·h; bioavailability [12]: 140%; Activity [13]: Dose-Dependent Effect; Activity [14]: Active; concentration at 8 h [15]: 3.1 µM; concentration at 25 h [16]: 0.2 µM |
| OCCn1cc(-c2cc(F)cc3c2-c2ccccc2C3(O)C(F)(F)F)cn1 (stereo not drawn) |  | 97 | 59.8 | 20 |  |
| OCCn1cc(-c2cccc3c2-c2ccccc2C3(O)C(F)(F)F)cn1 (racemic) | 92 (≈ 33.2 µg/mL) | 94 | 68 |  |  |
| CC(C)(C)Cn1cc(-c2cccc3c2-c2ccccc2C3(O)C(F)(F)F)cn1 (racemic) | ≤ 0.4 | 84 | 16.2 |  |  |
| Cn1cc(-c2cc(OCCCC(=O)O)cc3c2-c2ccccc2C3(O)C(F)(F)F)cn1 (stereo not drawn) |  | 91 | 28.4 | 20 |  |
| COC(=O)c1cccc2c1-c1ccccc1C2(O)C(F)(F)F (racemic) | 83 (≈ 25.6 µg/mL) |  | 17.4 | 900 |  |
